PubChem BioAssay (NCI)
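Each compound was tested at five concentrations against cells in 96-well plates for 48 hours. At the TGI there is no net growth.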

Key:
Assay in all cases: DTP human tumour cell line panel, 48 h
DMS 114 small cell lung = test system: DMS 114 small cell lung
UO-31 renal = test system: UO-31 renal
MCF7 breast = test system: MCF7 breast
HL-60(TB) leukemia = test system: HL-60(TB) leukemia
KM20L2 colon = test system: KM20L2 colon
HS 578T breast = test system: HS 578T breast
T-47D breast = test system: T-47D breast
DU-145 prostate = test system: DU-145 prostate
MALME-3M melanoma = test system: MALME-3M melanoma
SNB-75 CNS = test system: SNB-75 CNS
XF 498 CNS = test system: XF 498 CNS
M19-MEL melanoma = test system: M19-MEL melanoma

| SMILES | TGI (DMS 114 small cell lung) [µM] | TGI (UO-31 renal) [µM] | TGI (MCF7 breast) [µM] | TGI (HL-60(TB) leukemia) [µM] | TGI (KM20L2 colon) [µM] | TGI (HS 578T breast) [µM] | TGI (T-47D breast) [µM] | TGI (DU-145 prostate) [µM] | TGI (MALME-3M melanoma) [µM] | TGI (SNB-75 CNS) [µM] | TGI (XF 498 CNS) [µM] | TGI (M19-MEL melanoma) [µM] |
| --- | --- | --- | --- | --- | --- | --- | --- | --- | --- | --- | --- | --- |
| CCN(CC)CCn1c2ccccc2c(=O)c2c(O)ccc(O)c21 | 41 | 63.8 | 40.1 | 46.8 | > 100 | 53.5 | 34.3 | > 100 | 49.3 | 49.5 | 44.2 |  |
| O=c1nc(NC(c2ccccc2)(c2ccccc2)c2ccccc2)ccn1CCNCCn1ccc(NC(c2ccccc2)(c2ccccc2)c2ccccc2)nc1=O | 13.5 | > 100 |  |  | 30.1 |  |  |  | 29.3 | > 100 | 31.9 | 21 |
| Cc1ccc([N+](=O)[O-])cc1NC(=O)c1cccc([N+](=O)[O-])c1O | 43.2 | 36.2 |  | 34.4 | > 100 |  |  |  | 62.7 | 43.7 | 63.2 | 56 |
| COc1cc2c(cc1OC)[C@H]1C(COC(=O)c3ccccc3)CSC(=Nc3ccccc3)N1CC2 (stereo partly specified) | > 100 | > 100 |  | > 100 | > 100 |  |  |  | > 100 | > 100 | > 100 | > 100 |
| CN(C)CCNC(=O)c1cccc2[nH]c(-c3cccnc3)nc12 |  | 39.5 |  | > 100 |  |  |  |  |  | 73.3 |  | 39.8 |
| C/C=C1/CCC2c3[nH]c4ccccc4c3CCN2C1 (stereo unspecified) | > 100 | > 100 |  | > 100 | > 100 |  |  |  | 67.7 | > 100 | > 100 | > 100 |
| CN(C)C=[N+]=[N-] | > 100 | > 100 |  | > 100 | > 100 |  |  |  | > 100 | > 100 | > 100 | > 100 |
| Cc1c(C(=O)CC(=O)C(=O)Nc2ccc(Cl)cc2)[n+](=O)c2ccccc2n1[O-] | > 100 | > 100 |  | > 100 | > 100 |  |  |  | > 100 | > 100 | > 100 | > 100 |
| COc1ccc(S(=O)(=O)N/N=C/c2cc(I)cc([N+](=O)[O-])c2O)cc1OC |  | 53.4 |  | 57.5 | > 100 |  |  |  | 83.9 |  | 51.1 | 99.2 |
| C=C1C(=O)OC2C=C(CCC(C)=O)C(C)C(OC(C)=O)CC12 (stereo unspecified) |  | 26.6 |  | 8.89 | 16.4 |  |  |  | 25.2 | 24.4 | 26.1 | 64.7 |
| CCCC/C=C1\CCC(C)(CN(C)C)C1=O (stereo unspecified) | > 100 | > 100 |  | > 100 | > 100 |  |  |  | > 100 |  |  | 29 |
| O=C(O)CCC(NC(=O)c1ccccc1)C(=O)O (stereo unspecified) | > 100 | > 100 |  |  | > 100 |  |  |  | > 100 | > 100 | > 100 |  |
| O=C(c1ccccc1)[C@@H]1C[C@H](Sc2ccccc2)c2cc(Cl)ccc2N1 | 82.6 | 56.7 |  |  | 70.3 |  |  |  | > 100 | 58.7 | 46.9 | > 100 |
| COc1cc(C(O)C(=O)c2nc3ccc([N+](=O)[O-])cc3[nH]c2=O)ccc1O (stereo unspecified) | > 100 | > 100 |  | > 100 | > 100 |  |  |  | > 100 |  | > 100 | > 100 |
